Measured values from US10751293B2, “Polymer fiber scaffolds and uses thereof” (CASE WESTERN RESERVE UNIVERSITY, priority 2015, dated 2020).

Assay: thermogravimetric analysis (TGA), thermal stability

For `Clc1ccccc1C(c1ccccc1)(c1ccccc1)n1ccnc1` [Clotrimazole], which “stability at the processing temperature” value (180° C.) is on record?
Its value is “stable”.

And the “temperature above which decomposition begins” value (non-isothermal mode)?
The value was “above 190 °C”.
